Data published in patent publication US9682955B2, “Quinazoline derivatives useful as CB-1 inverse agonists” (Janssen Pharmaceutica NV, priority 2014, dated 2017).
Several values for one entry are separate records, joined by “and”; a condition that tells them apart may be missing. Equal entries are not always repeated.

Experiments:
[1] = target: Human CB2R (Cannabanoid receptor 2) (Homo sapiens (Human), UniProt P34972); test: CB-2 in vitro cAMP assay (HTRF); type: cell-based; settings: mean where tested more than once
Human CB2R (Cannabanoid receptor 2), sequence (P34972 whole entry): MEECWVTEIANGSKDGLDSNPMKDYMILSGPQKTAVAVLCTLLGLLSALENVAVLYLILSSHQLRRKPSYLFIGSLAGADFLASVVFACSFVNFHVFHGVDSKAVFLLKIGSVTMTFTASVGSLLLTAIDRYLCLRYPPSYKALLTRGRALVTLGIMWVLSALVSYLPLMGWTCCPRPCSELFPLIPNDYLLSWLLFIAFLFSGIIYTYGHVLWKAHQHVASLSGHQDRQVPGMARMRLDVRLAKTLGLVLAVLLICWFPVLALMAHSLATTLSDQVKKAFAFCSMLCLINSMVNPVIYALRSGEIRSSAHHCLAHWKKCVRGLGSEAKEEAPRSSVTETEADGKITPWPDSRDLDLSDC
Outline: (§1)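 HEK-293 cells stably transfected with the human receptor, plated overnight at 4E5 cells/mL. Compounds given as 1/3 serial dilutions from 10 mM DMSO stocks. Stimulation in HBSS/5 mM HEPES/0.1% BSA with 0.5 mM IBMX and forskolin (1.5 μM in buffer); cAMP measured by competitive HTRF immunoassay (d2-cAMP, cryptate anti-cAMP) against a cAMP standard curve.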

[2] = Mouse Fast PK/BBB (plasma and brain concentration); type: in vivo, Male C57bl/6j mice
Protocol: Male Sprague Dawley rats were ordered from Charles River (225-250 gm upon arrival). They were fed standard chow diet (Purina 5001) and housed 2 per cage. Male C57bl/6j mice were ordered from Charles River at 22-25 g and housed 3 per cage. They were fed standard chow (Purina 5001). All animals were housed in a temperature-controlled room with 12-hour light/dark cycle. Animals were given food and water ad libitum, except as noted.
[…] Test compounds were administered by oral gavage (5 ml kg^−1).
Male C57bl/6j mice were dosed with test compounds at 30 mg/kg. Plasma was collected via retro-orbital bleeding at 1 hr and 4 hrs after dosing. Whole brain without cerebellum was collected at 4 hrs after dosing. Wet brain weight was recorded before freezing. Brains were homogenized in saline and sent for analysis for determination of concentration of test compound.
Tables 6A and 6B below present results for representative compounds of the present invention, tested according to the procedure as described above. Each compound was tested in three animals (N=3) and administered PO at 20 mg/kg or 30 mg/kg.

[3] = target: Human CB1R (Cannabanoid receptor 1) (Homo sapiens (Human), UniProt P21554); test: CB-1 in vitro cAMP assay (HTRF); type: cell-based; settings: mean where tested more than once
Human CB1R (Cannabanoid receptor 1), sequence (P21554 whole entry): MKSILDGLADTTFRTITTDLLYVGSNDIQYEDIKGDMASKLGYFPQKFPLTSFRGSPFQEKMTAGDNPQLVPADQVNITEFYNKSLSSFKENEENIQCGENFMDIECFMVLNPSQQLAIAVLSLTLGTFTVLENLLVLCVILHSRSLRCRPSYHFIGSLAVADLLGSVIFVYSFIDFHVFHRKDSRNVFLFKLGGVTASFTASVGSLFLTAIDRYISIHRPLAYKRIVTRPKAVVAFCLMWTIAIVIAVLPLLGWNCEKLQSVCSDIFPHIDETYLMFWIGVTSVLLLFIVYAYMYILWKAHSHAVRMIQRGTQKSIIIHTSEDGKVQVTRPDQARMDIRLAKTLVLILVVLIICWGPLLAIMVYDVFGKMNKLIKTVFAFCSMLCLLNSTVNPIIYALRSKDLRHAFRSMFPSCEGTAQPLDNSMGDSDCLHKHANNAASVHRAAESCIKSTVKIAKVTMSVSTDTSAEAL
Outline: as §1

[4] = PO 20 mg/kg, 10% PEG400 and 10% Solutol in water, 1 hr, individual animals
[5] = PO 20 mg/kg, 10% PEG400 and 10% Solutol in water, 4 hr, individual animals
[6] = PO 30 mg/kg, 5% NMP and 20% HPβCD ~pH8 in water, 1 hr, individual animals
[7] = PO 30 mg/kg, 5% NMP and 20% HPβCD ~pH8 in water, 4 hr, individual animals

EC50 [1]	EC50 [3]	Compound	also measured
323 nM	14 nM	O=C(O)c1ccc(S(=O)(=O)N2CCC(Nc3ncnc4ccc(C(c5ccc(Cl)cc5)c5ccc(Cl)cc5)cc34)CC2)cc1 [Compound #93, 4-((4-((6-(bis(4-chlorophenyl)methyl)quinazolin-4-yl)amino)piperidin-1-yl)sulfonyl)benzoic acid]	BRAIN Range of Conc. [2, 4]: ND, ND, ND; PLASMA Range of Conc. [2, 4]: ND, BLOQ, ND; BRAIN Range of Conc. [2, 5]: ND, ND, ND; PLASMA Range of Conc. [2, 5]: 17.155 ng/mL and 6.427 ng/mL; BRAIN Range of Conc. [2, 6]: BLOQ, BLOQ,; PLASMA Range of Conc. [2, 6]: 280 ng/mL and 9.10 ng/mL and 9.00 ng/mL; BRAIN Range of Conc. [2, 7]: BLOQ, BLOQ,; PLASMA Range of Conc. [2, 7]: BLOQ, BLOQ,; concentration at 4 h ([2]; male, C57bl/6j, plasma, PO 20 mg/kg, 10% PEG400 and 10% Solutol in water, 4 hr, individual animals, read-out: PLASMA Range of Conc.): 16.1 ng/mL
3920 nM	10 nM	N=C(N)c1ccc(S(=O)(=O)N2CCC(Nc3ncnc4ccc(C(c5ccc(Cl)cc5)c5ccc(Cl)cc5)cc34)CC2)cc1 [Compound #47, 4-((4-((6-(bis(4-chlorophenyl)methyl)quinazolin-4-yl)amino)piperidin-1-yl)sulfonyl)benzimidamide]	BRAIN Mean Conc. ± Std. Dev ([2]; PO 30 mg/kg, 1 hr, N=3): BLOQ ± NA; BRAIN Mean Conc. ± Std. Dev ([2]; PO 30 mg/kg, 4 hr, N=3): BLOQ ± NA; PLASMA Mean Conc. ± Std. Dev ([2]; PO 30 mg/kg, 4 hr, N=3): BLOQ ± NA; concentration at 1 h ([2]; male, C57bl/6j, plasma, PO 30 mg/kg, 1 hr, N=3, read-out: PLASMA Mean Conc. ± Std. Dev): 7.83 ± 1.08 ng/mL
514 nM	41 nM	O=C(O)c1ccc(S(=O)(=O)N2CCC(Nc3nc(OCCO)nc4ccc(C(c5ccc(Cl)cc5)c5ccc(Cl)cc5)cc34)CC2)cc1 [Compound #39, 4-((4-((6-(bis(4-chlorophenyl)methyl)-2-(2-hydroxyethoxy)quinazolin-4-yl)amino)piperidin-1-yl)sulfonyl)benzoic acid]	–
3160 nM	818 nM	O=C(O)c1cccc(N2CCC(Nc3ncnc4ccc(C(c5ccc(Cl)cc5)c5ccc(Cl)cc5)cc34)CC2)c1 [compound 95, 3-(4-(6-(bis(4-chlorophenyl)methyl)quinazolin-4-ylamino)piperidin-1-yl)benzoic acid]	–
5940 nM	44 nM	FC(F)(F)c1ccc(C2(Nc3ncnc4ccc(C(c5ccc(Cl)cc5)c5ccc(Cl)cc5)cc34)CC2)cc1 [compound 125, 6-(bis(4-chlorophenyl)methyl)-N-(1-(4-(trifluoromethyl)phenyl)cyclopropyl) quinazolin-4-amine]	–
> 10000 nM	176 nM	O=C(O)c1ccc(CN2CCC(Nc3ncnc4ccc(C(c5ccc(Cl)cc5)c5ccc(Cl)cc5)cc34)CC2)s1 [compound 34, 5-((4-(6-(bis(4-chlorophenyl)methyl)quinazolin-4-ylamino)piperidin-1-yl)methyl)thiophene-2-carboxylic acid]	–
9100 nM	446 nM	NC(=O)c1ccc(CNc2ncnc3ccc(C(c4ccc(Cl)cc4)c4ccc(Cl)cc4)cc23)cc1 [compound 56, 4-((6-(bis(4-chlorophenyl)methyl)quinazolin-4-ylamino)methyl)benzamide]	–
> 10000 nM	91 nM	FC(F)(F)c1ccc(Nc2ncnc3ccc(C(c4ccc(Cl)cc4)c4ccc(Cl)cc4)cc23)cc1 [Compound #143, 6-(bis(4-chlorophenyl)methyl)-N-(4-(trifluoromethyl)phenyl)quinazolin-4-amine]	–
218 nM	17 nM	O=S(=O)(N1CCC(Nc2ncnc3ccc(C(c4ccc(Cl)cc4)c4ccc(Br)cc4)cc23)CC1)C(F)(F)F (stereo not shown) [Compound #20, 6-((4-bromophenyl)(4-chlorophenyl)methyl)-N-(1-((trifluoromethyl)sulfonyl)piperidin-4-yl)quinazolin-4-amine]	–
4700 nM	10 nM	C[C@H](Nc1ncnc2ccc(C(c3ccc(Cl)cc3)c3ccc(Cl)cc3)cc12)c1cccc(C(F)(F)F)c1 (single isomer, unassigned) [Compound #112]	–
3570 nM	191 nM	NC(=O)c1ccc(CN2CCC(Nc3ncnc4ccc(C(c5ccc(Cl)cc5)c5ccc(Cl)cc5)cc34)CC2)cc1 [compound 38, 4-((4-(6-(bis(4-chlorophenyl)methyl)quinazolin-4-ylamino)piperidin-1-yl)methyl)benzamide]	–
> 10000 nM	68 nM	O=S(=O)(NC1CCN(c2ncnc3ccc(C(c4ccc(Cl)cc4)c4ccc(Cl)cc4)cc23)CC1)C(F)(F)F [Compound #104, N-(1-(6-(bis(4-chlorophenyl)methyl)quinazolin-4-yl)piperidin-4-yl)-1,1,1-trifluoromethanesulfonamide]	–
4950 nM	215 nM	NC(=O)c1cccc(CNc2ncnc3ccc(C(c4ccc(Cl)cc4)c4ccc(Cl)cc4)cc23)c1 [Compound #57, 3-(((6-(bis(4-chlorophenyl)methyl)quinazolin-4-yl)amino)methyl)benzamide]	–
845 nM	8 nM	NC(=O)CCCOc1nc(NCc2ccc(C(F)(F)F)cc2)c2cc(C(c3ccc(Cl)cc3)c3ccc(Cl)cc3)ccc2n1 [Compound #66, 4-((6-(bis(4-chlorophenyl)methyl)-4-((4-(trifluoromethyl)benzyl)amino)quinazolin-2-yl)oxy)butanamide]	–
> 10000 nM	5 nM	[N-]=[N+]=NCCOc1nc(NCc2ccc(C(F)(F)F)cc2)c2cc(C(c3ccc(Cl)cc3)c3ccc(Cl)cc3)ccc2n1 [Compound #75, 2-(2-azidoethoxy)-6-(bis(4-chlorophenyl)methyl)-N-(4-(trifluoromethyl)benzyl)quinazolin-4-amine]	–
173 nM	4 nM	COC(=O)Cc1ccc(N2CCC(Nc3ncnc4ccc(C(c5ccc(Cl)cc5)c5ccc(Cl)cc5)cc34)CC2)cc1 [Compound #79, Methyl 2-(4-(4-((6-(bis(4-chlorophenyl)methyl)quinazolin-4-yl)amino)piperidin-1-yl)phenyl)acetate]	–
6260 nM	165 nM	O=C(O)c1csc(CN2CCC(Nc3ncnc4ccc(C(c5ccc(Cl)cc5)c5ccc(Cl)cc5)cc34)CC2)c1 [Compound #18, 5-((4-((6-(bis(4-chlorophenyl)methyl)quinazolin-4-yl)amino)piperidin-1-yl)methyl)thiophene-3-carboxylic acid]	–
195 nM	695 nM	O=C(O)c1ccc(N2CCC(Nc3ncnc4ccc(C(c5ccc(Cl)cc5)c5ccc(Cl)cc5)cc34)CC2)cc1 [Compound #92, 4-(4-((6-(bis(4-chlorophenyl)methyl)quinazolin-4-yl)amino)piperidin-1-yl)benzoic acid]	–
6760 nM	146 nM	O=C(O)c1cccc(CN2CCC(Nc3ncnc4ccc(C(c5ccc(Cl)cc5)c5ccc(Cl)cc5)cc34)CC2)c1 [Compound #37, 3-((4-((6-(bis(4-chlorophenyl)methyl)quinazolin-4-yl)amino)piperidin-1-yl)methyl)benzoic acid]	–
> 10000 nM	15 nM	CC(C)OC(=O)OCOC(=O)c1ccc(S(=O)(=O)N2CCC(Nc3ncnc4ccc(C(c5ccc(Cl)cc5)c5ccc(Cl)cc5)cc34)CC2)cc1 [Compound #64, ((Isopropoxycarbonyl)oxy)methyl 4-((4-((6-(bis(4-chlorophenyl)methyl)quinazolin-4-yl)amino)piperidin-1-yl)sulfonyl)benzoate]	–
8490 nM	1 nM	OC1(c2ccccc2)CCC(Nc2ncnc3ccc(C(c4ccc(Cl)cc4)c4ccc(Cl)cc4)cc23)CC1 (stereo not shown) [Compound #99, 4-((6-(bis(4-chlorophenyl)methyl)quinazolin-4-yl)amino)-1-phenylcyclohexanol]	–
> 10000 nM	950 nM	O=C(O)c1ccc(C(=O)N2CCC(Nc3ncnc4ccc(C(c5ccc(Cl)cc5)c5ccc(Cl)cc5)cc34)CC2)cc1 [Compound #68, 4-(4-((6-(bis(4-chlorophenyl)methyl)quinazolin-4-yl)amino)piperidine-1-carbonyl)benzoic acid]	–
> 10000 nM	3 nM	FC(F)(F)c1cccc(CNc2ncnc3ccc(C(c4ccc(Cl)cc4)c4ccc(Cl)cc4)cc23)c1 [Compound #136, 6-(bis(4-chlorophenyl)methyl)-N-(3-(trifluoromethyl)benzyl)quinazolin-4-amine]	–
> 10000 nM	19 nM	OCCCCOc1nc(NCc2ccc(C(F)(F)F)cc2)c2cc(C(c3ccc(Cl)cc3)c3ccc(Cl)cc3)ccc2n1 [Compound #71, 4-((6-(bis(4-chlorophenyl)methyl)-4-((4-(trifluoromethyl)benzyl)amino)quinazolin-2-yl)oxy)butan-1-ol]	–
